Here are results for 10 compounds from BindingDB's records for PubMed 37122539 (Virginia Tech, 2023).

Each structure is given as a SMILES string. ≈ marks a conversion by molar mass, not a printed value.

The test concerns Enterococcus faecalis. Kind of test: Antibacterial activity against Enterococcus faecalis ATCC 29212 incubated for 16 hrs by broth microdilution method.

Compound `CN(CC[C@H](N)CC(=O)N[C@H]1C=C[C@H](n2ccc(N)nc2=O)O[C@@H]1C(=O)O)C(=N)N` came in with an IC50 of 53 µg/mL (≈ 125 µM).

Turning to `CN(CC[C@H](N)CC(=O)N[C@H]1C=C[C@H](n2ccc(N)nc2=O)O[C@@H]1C(N)=O)C(=N)N`, the midpoint of inhibition, the IC50, lay at 13 µg/mL (≈ 30.8 µM).

In turn, `COC(=O)[C@H]1O[C@@H](n2ccc(N)nc2=O)C=C[C@@H]1NC(=O)C[C@@H](N)CCN(C)C(=N)N` had an IC50 of 9.2 µg/mL (≈ 21.1 µM). The IC50 values of the last two compounds are within 1.5-fold of each other.

The compound `CCOC(=O)[C@H]1O[C@@H](n2ccc(N)nc2=O)C=C[C@@H]1NC(=O)C[C@@H](N)CCN(C)C(=N)N` gave an IC50 of 9.9 µg/mL (≈ 22 µM).

Take `CCCOC(=O)[C@H]1O[C@@H](n2ccc(N)nc2=O)C=C[C@@H]1NC(=O)C[C@@H](N)CCN(C)C(=N)N`: the IC50 stood at 11 µg/mL (≈ 23.7 µM).

In the case of `CCCCOC(=O)[C@H]1O[C@@H](n2ccc(N)nc2=O)C=C[C@@H]1NC(=O)C[C@@H](N)CCN(C)C(=N)N`, the IC50 was 16 µg/mL (≈ 33.4 µM).

As for `CCCCCCOC(=O)[C@H]1O[C@@H](n2ccc(N)nc2=O)C=C[C@@H]1NC(=O)C[C@@H](N)CCN(C)C(=N)N`, the IC50 is 11 µg/mL (≈ 21.7 µM).

For `C#CCCCOC(=O)[C@H]1O[C@@H](n2ccc(N)nc2=O)C=C[C@@H]1NC(=O)C[C@@H](N)CCN(C)C(=N)N`, the IC50 is 12 µg/mL (≈ 24.6 µM).

`CN(CC[C@H](N)CC(=O)N[C@H]1C=C[C@H](n2ccc(N)nc2=O)O[C@@H]1C(=O)OCc1ccccc1)C(=N)N` registered an IC50 of 15 µg/mL (≈ 29.3 µM). The IC50 values of the last two compounds are within 1.5-fold of each other.

In turn, `CN(CC[C@H](N)CC(=O)N[C@H]1C=C[C@H](n2ccc(N)nc2=O)O[C@@H]1C(=O)OCCc1ccccc1)C(=N)N` registered an IC50 of 6.9 µg/mL (≈ 13.1 µM).
